Source: patent publication US5545639A, “Method of inhibiting transformed cells” (The United States of America as represented by the …, priority 1994, dated 1996)

Key:
[1] = test system: DMS 273; test: Dose response of growth, tumor cell line; assay type: cell-based; details: Homo sapiens; DMS 273, small cell lung cancer; read-out: 50% Loss (50% kill)
[2] = test system: DMS 114; test: Dose response of growth, tumor cell line; assay type: cell-based; details: Homo sapiens; DMS 114, small cell lung cancer; read-out: 50% Loss (50% kill)
Experimental: Indeed, 70% of the cell lines were shown not only to experience precluded growth, but cell death, when exposed to less then 100 μM of the active ingredient.

ClCc1ccc2ccc3ccc(CCl)nc3c2n1 [2,9-bis(chloromethyl)-1,10-phenanthroline] showed a CC50 [1] greater than 100 µM and a CC50 [2] of 7.72 µM.
